Data set [1] relates to CHOP/GADD153. Kind of data set: Western blot of CHOP/GADD153, hypoxic HT1080 cells. Type of data set: cell-based, human. The following applies: 2.5 μM; hypoxia for 6-12 hours. Here is the method:
Cells (2×10^6) were cultured in 10-cm dishes, collected using a cell scraper at 4° C., and lysed by addition of 150 μl cell lysis buffer [50 mM Tris pH 7.4, 150 mM NaCl, 10% glycerol, 0.5% Triton X-100. 0.5% NP-40, 2 mM Na3VO4, 20 mM beta-glycerophosphate, 10 mM NaF, 1 mM DTT, 1 mM PMSF). Lysates were centrifuged for 5 min at 10,000×g, and proteins (˜40 μg) were resolved by SDS-PAGE followed by semi-dry transfer to nitrocellulose membranes. Membranes were blocked in TBS-5% milk supplemented with 0.1% Tween-20. The blots were then probed overnight with relevant antibodies, washed, and incubated for 2 hours with species-specific secondary antibodies conjugated to horseradish peroxidase. After washing in block solution, immunoreactive material was detected by enhanced chemiluminescence (SuperSignal West Dura Extended, Pierce, Inc., Rockville, Ill.).
A. Effect of irestatin 9389 on PERK and ATF6 pathways. […] Protein lysates were analyzed by Western blot analysis using antisera specific for ATF6 (top), CHOP/GADD153 (middle) or actin (bottom). […] Cells were harvested, counted, and allowed to grow under normal culture conditions for 11-12 days. […] D. Quantification of clonogenic survival assay. […] F. Quantification of TUNEL-positive cells. […] Cells were harvested at the indicated times and counted by hemocytometer. Values represent the mean calculated from triplicate experiments+/−SEM. […]
In general terms: A western blot detects proteins with antibodies after separation by electrophoresis.

Data set [2] is described as follows: Potential toxicities of irestatin 9389, increasing i.p. doses. It counts as in vivo. Here is the method:
Female 4-6 week-old SCID (B6.CB 17) mice supplied by Stanford University Animal Facility were housed in the same facility (American Association of Laboratory Animal Care-approved) with 12 hour light cycles. Food and water were provided ad libitum. All experiments were approved by the institutional care and use committee. The potential toxicities of irestatin 9389 were examined in SCID mice injected i.p. once daily over 4 consecutive days with increasing doses of irestatin 9389 or vehicle control. […] For xenografts, 2×10^6 HT1080 fibrosarcoma cells were resuspended in 50-75 μl PBS and injected s.c. in the dorsal flanks of host mice. When the implanted tumors reached a mean volume of ˜150 mm^3, mice were randomly assigned into different treatment groups. Mice were dosed by i.p. bolus injection with either vehicle (50% DMSO, 20% cremophor EL, 30% ethanol) or irestatin 9389 (50 mg/kg). Tumors (6-8 per group) were measured every 2-4 days with calipers. Tumor volume was calculated using the formula [(W^2×L) 0.52] where W=width and L=length.

The subject of data set [3] is HT1080 fibrosarcoma. The experiment in a line: Cell proliferation assay, HT1080. It counts as cell-based, human. As to conditions: normal conditions; same concentrations. Here is the method:
A. Effect of irestatin 9389 on PERK and ATF6 pathways. HT1080 cells were treated with vehicle alone (lanes 1-4) or 2.5 μM irestatin 9389 (lanes 5-8) and cultured under aerobic conditions for 18 hours (N) or shifted to hypoxia for the indicated times. Protein lysates were analyzed by Western blot analysis using antisera specific for ATF6 (top), CHOP/GADD153 (middle) or actin (bottom). Arrow indicates the cleaved, transcriptionally active form of ATF6. B. Cleavage of caspase-3 in irestatin-treated cells under hypoxia. HT1080 cells were cultured in normoxia (N) or under hypoxia for 36 hours (H 36) in absence or presence of irestatin 9389 (2.5 μM). Arrows indicate proteolytically cleaved caspase-3. C. Colony formation assay. HT1080 cells were treated as in B under normoxia (N) or hypoxia for 48 hours (H 48). Cells were harvested, counted, and allowed to grow under normal culture conditions for 11-12 days. Colonies were visualized with crystal violet staining. D. Quantification of clonogenic survival assay. Values represent the mean+/−SEM from at least 4 independent experiments. E. TUNEL staining of cells treated as in C. F. Quantification of TUNEL-positive cells. Values represent the mean+/− SEM from at least 3 experiments. […] Cells were harvested at the indicated times and counted by hemocytometer. Values represent the mean calculated from triplicate experiments+/−SEM.

Data set [4] concerns XBP1-luciferase reporter. The experiment in a line: XBP-luciferase reporter high throughput screen / IRE IC50 (tunicamycin + thapsigargin induced). It counts as cell-based, human. As to conditions: Assay IRE IC50; Conc 20 uM. Here is the method: Specifically, HT1080 fibrosarcoma cells stably transfected with the unspliced XBP-1-luciferase reporter construct (3000/well) were plated onto a solid white 384 well microplate with a multidrop dispenser (40 μL per well). The plates were then placed into an automated incubator. After 24 hours of growth, a mixture of tunicamycin (1 μg/ml) and thapsigargin (100 nM) inducers were added, and candidate compounds were then added to the plates. After 24 hours, luciferase reagent (10 μl) was added to each well and the plates were read in a Molecular Devices Analyst GT (0.2 second read per well).
As described above in Example 2, HT1080 fibrosarcoma cells stably expressing the XBP-luciferase reporter were plated in a 384 well microplate (4000 cells/well). After 24 hours, cells were treated with a mixture of tunicamycin (4 μg/ml) and thapsigargin (0.4 μM), followed by the addition of one compound per well (10 μM). We screened a total of 66,000 diverse molecules obtained from Specs, Chembridge and ChemRX. Twenty-four hours post-induction, BriteGlo luciferase substrate (10 μl) was added to each well and the signal intensity determined in a plate reader (0.2 s read per well). […] We retested 431 compounds from the initial screen, and selected 58 compounds for additional analysis, including calculation of IC50 values and inhibition of a CMV-luciferase reporter.
Compounds of the screening library with structural similarity to compound 9389 (see Table 1) have been identified and in some cases further assayed for inhibitory activity. Compounds listed with “IC50” values were assayed secondarily after initially being identified in the high throughput screen. Each value represents a separate calculation of reporter inhibition based upon the high throughput robotic screening platform. The actual IC50 values are calculated and represent an estimate of the potency of each compound. This assay is not considered to be accurate below a concentration of 10 nM. Compounds classified with “mild” activity inhibited the XBP1-luciferase reporter by 10-30%. Compounds classified with “moderate” activity inhibited the XBP1-luciferase reporter by 30-75%. Compounds classified with “potent” activity inhibited the XBP1-luciferase reporter by 75-100%. Compounds classified with “undetected” activity inhibited the XBP1-luciferase reporter by less than 10% under the defined conditions.

Regarding `Cc1csc(NC(=O)CSc2nc3c(c(C(F)(F)F)c2C#N)CCC3)n1` [Compound 9389], in data set [1], the “expression of CHOP/GADD153” value was “increased”. Also, the toxicity result in data set [2] (dosing regimen of 50-60 mg/kg i.p.) is reported as “without apparent toxicity”. In data set [2] (female, SCID (B6.CB 17), mouse, in vivo, 4 days), the “dosing regimen of 50-60 mg/kg as share of the LD50 value” is reported as 75%. Moreover, the “growth rate of HT1080 cells” value in data set [3] was “negligible effect on the growth rate”. Also, in data set [4], the “% Inh” value was 100.3%.

For the origin of these results see patent publication US20130150399A1, “INHIBITORS OF THE UNFOLDED PROTEIN RESPONSE AND METHODS FOR THEIR USE” (The Board of Trustees of the Leland Stanford Junior …, priority 2006, published 2013).
